According to PubChem BioAssay (NCI):
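Exposure lasted 48 hours, with cells grown in 96-well plates and compounds tested at five concentrations. Here, GI50 denotes the concentration required for 50% inhibition of growth. TGI denotes the concentration required for complete inhibition of growth.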

Legend:
Experiment in all cases: DTP human tumour cell line panel, 48 h
K-562 leukemia = system: K-562 leukemia
TK-10 renal = system: TK-10 renal
A549 NSCLC = system: A549 NSCLC
MDA-MB-435 = system: MDA-MB-435
SW-620 colon = system: SW-620 colon
SK-MEL-5 melanoma = system: SK-MEL-5 melanoma
U251 CNS = system: U251 CNS
MOLT-4 leukemia = system: MOLT-4 leukemia
NCI-H522 lung = system: NCI-H522 lung
786-0 renal = system: 786-0 renal
IGROV1 ovarian = system: IGROV1 ovarian
SK-MEL-28 melanoma = system: SK-MEL-28 melanoma
SN12C renal = system: SN12C renal
KM12 colon = system: KM12 colon
HOP-62 NSCLC = system: HOP-62 NSCLC
UACC-62 melanoma = system: UACC-62 melanoma
UACC-257 melanoma = system: UACC-257 melanoma
MDA-MB-231 breast = system: MDA-MB-231 breast
HOP-92 NSCLC = system: HOP-92 NSCLC
OVCAR-4 ovarian = system: OVCAR-4 ovarian
LOX IMVI melanoma = system: LOX IMVI melanoma
HCT-116 colon = system: HCT-116 colon
RPMI-8226 leukemia = system: RPMI-8226 leukemia
EKVX NSCLC = system: EKVX NSCLC
SK-MEL-2 melanoma = system: SK-MEL-2 melanoma
OVCAR-5 ovarian = system: OVCAR-5 ovarian
SF-295 CNS = system: SF-295 CNS
M14 melanoma = system: M14 melanoma
HCC-2998 colon = system: HCC-2998 colon
ACHN renal = system: ACHN renal
UO-31 renal = system: UO-31 renal
SK-OV-3 ovarian = system: SK-OV-3 ovarian
CCRF-CEM leukemia = system: CCRF-CEM leukemia
DU-145 prostate = system: DU-145 prostate
PC-3 prostate = system: PC-3 prostate
HS 578T breast = system: HS 578T breast
MCF7 breast = system: MCF7 breast
HT29 colon = system: HT29 colon
A498 renal = system: A498 renal
NCI-H226 lung = system: NCI-H226 lung
SF-268 CNS = system: SF-268 CNS
SNB-75 CNS = system: SNB-75 CNS
BT-549 breast = system: BT-549 breast
NCI/ADR-RES ovarian = system: NCI/ADR-RES ovarian
COLO 205 colon = system: COLO 205 colon
OVCAR-3 ovarian = system: OVCAR-3 ovarian
CAKI-1 renal = system: CAKI-1 renal
SR leukemia = system: SR leukemia
OVCAR-8 ovarian = system: OVCAR-8 ovarian
NCI-H23 lung = system: NCI-H23 lung
SF-539 CNS = system: SF-539 CNS
HCT-15 colon = system: HCT-15 colon
MALME-3M melanoma = system: MALME-3M melanoma
HL-60(TB) leukemia = system: HL-60(TB) leukemia
T-47D breast = system: T-47D breast
NCI-H460 lung = system: NCI-H460 lung
RXF 393 renal = system: RXF 393 renal
SNB-19 CNS = system: SNB-19 CNS

`O=C(O[C@H]1CN[C@H](C#Cc2cc3ncnc(Nc4ccc5c(ccn5Cc5cc(F)ccc5F)c4)c3s2)C1)N1CCOCC1` gave a GI50 (K-562 leukemia) of 6.49 µM, a TGI (K-562 leukemia) of over 25 µM and a GI50 (TK-10 renal) of 72.4 nM. It also gave a TGI (TK-10 renal) of 1930 nM, a GI50 (A549 NSCLC) of 3.07 µM and a TGI (A549 NSCLC) of 10.1 µM. The GI50 (MDA-MB-435) was 5.13 µM, the TGI (MDA-MB-435) was 18.2 µM and the GI50 (SW-620 colon) was 5.16 µM. It also gave a TGI (SW-620 colon) of 15.1 µM, a GI50 (SK-MEL-5 melanoma) of 2950 nM and a TGI (SK-MEL-5 melanoma) of 6.13 µM. For the same molecule, the GI50 (U251 CNS) was 3.61 µM, the TGI (U251 CNS) was 8.25 µM and the GI50 (MOLT-4 leukemia) was 6.1 µM. The TGI (MOLT-4 leukemia) was over 25 µM, the GI50 (NCI-H522 lung) was 147 nM and the TGI (NCI-H522 lung) was 4.1 µM. For the same molecule, the GI50 (786-0 renal) was 4.55 µM, the TGI (786-0 renal) was 12.6 µM and the GI50 (IGROV1 ovarian) was 1330 nM. The TGI (IGROV1 ovarian) was over 16.7 µM, the GI50 (SK-MEL-28 melanoma) was 4.06 µM and the TGI (SK-MEL-28 melanoma) was 7.98 µM. The GI50 (SN12C renal) was 2570 nM, the TGI (SN12C renal) was 12.8 µM and the GI50 (KM12 colon) was 4.57 µM. For the same molecule, the TGI (KM12 colon) was 9.25 µM, the GI50 (HOP-62 NSCLC) was 3.22 µM and the TGI (HOP-62 NSCLC) was 8.06 µM. For the same molecule, the GI50 (UACC-62 melanoma) was 4.1 µM, the TGI (UACC-62 melanoma) was 9.3 µM and the GI50 (UACC-257 melanoma) was 4.2 µM. It also gave a TGI (UACC-257 melanoma) of 10.6 µM, a GI50 (MDA-MB-231 breast) of 1970 nM and a TGI (MDA-MB-231 breast) of 9.81 µM. For the same molecule, the GI50 (HOP-92 NSCLC) was 357 nM, the TGI (HOP-92 NSCLC) was 3.9 µM and the GI50 (OVCAR-4 ovarian) was 4.51 µM. The TGI (OVCAR-4 ovarian) was 16.5 µM, the GI50 (LOX IMVI melanoma) was 3.5 µM and the TGI (LOX IMVI melanoma) was 9.28 µM. It also gave a GI50 (HCT-116 colon) of 3.19 µM, a TGI (HCT-116 colon) of 7.44 µM and a GI50 (RPMI-8226 leukemia) of 4.65 µM. For the same molecule, the TGI (RPMI-8226 leukemia) was 13.7 µM, the GI50 (EKVX NSCLC) was 119 nM and the TGI (EKVX NSCLC) was 2040 nM. For the same molecule, the GI50 (SK-MEL-2 melanoma) was 5.35 µM, the TGI (SK-MEL-2 melanoma) was 12.7 µM and the GI50 (OVCAR-5 ovarian) was 1070 nM. For the same molecule, the TGI (OVCAR-5 ovarian) was 11.1 µM, the GI50 (SF-295 CNS) was 6.02 µM and the TGI (SF-295 CNS) was 17.7 µM. The GI50 (M14 melanoma) was 6.26 µM, the TGI (M14 melanoma) was 17.1 µM and the GI50 (HCC-2998 colon) was 3.56 µM. It also gave a TGI (HCC-2998 colon) of 7.35 µM, a GI50 (ACHN renal) of 575 nM and a TGI (ACHN renal) of over 25 µM. The GI50 (UO-31 renal) was 339 nM, the TGI (UO-31 renal) was 7.05 µM and the GI50 (SK-OV-3 ovarian) was 18.3 nM. The TGI (SK-OV-3 ovarian) was 106 nM, the GI50 (CCRF-CEM leukemia) was 5.59 µM and the TGI (CCRF-CEM leukemia) was 24.9 µM. For the same molecule, the GI50 (DU-145 prostate) was 2170 nM, the TGI (DU-145 prostate) was 5.52 µM and the GI50 (PC-3 prostate) was 5.52 µM. For the same molecule, the TGI (PC-3 prostate) was over 23.7 µM, the GI50 (HS 578T breast) was 488 nM and the TGI (HS 578T breast) was over 25 µM. For the same molecule, the GI50 (MCF7 breast) was 4.13 µM, the TGI (MCF7 breast) was over 14.5 µM and the GI50 (HT29 colon) was 3.86 µM. The TGI (HT29 colon) was 8.97 µM, the GI50 (A498 renal) was 765 nM and the TGI (A498 renal) was 5.2 µM. The GI50 (NCI-H226 lung) was 3.2 µM, the TGI (NCI-H226 lung) was 9.64 µM and the GI50 (SF-268 CNS) was 3.23 µM. For the same molecule, the TGI (SF-268 CNS) was 8.8 µM, the GI50 (SNB-75 CNS) was 853 nM and the TGI (SNB-75 CNS) was 6.21 µM. The GI50 (BT-549 breast) was 4.32 µM, the TGI (BT-549 breast) was 11 µM and the GI50 (NCI/ADR-RES ovarian) was 3.7 µM. The TGI (NCI/ADR-RES ovarian) was over 23.2 µM, the GI50 (COLO 205 colon) was 3.16 µM and the TGI (COLO 205 colon) was 6.86 µM. The GI50 (OVCAR-3 ovarian) was 2860 nM, the TGI (OVCAR-3 ovarian) was 6.55 µM and the GI50 (CAKI-1 renal) was 187 nM. The TGI (CAKI-1 renal) was over 21.7 µM, the GI50 (SR leukemia) was 6.28 µM and the TGI (SR leukemia) was 24.5 µM. It also gave a GI50 (OVCAR-8 ovarian) of 4.11 µM, a TGI (OVCAR-8 ovarian) of 15.4 µM and a GI50 (NCI-H23 lung) of 4.25 µM. The TGI (NCI-H23 lung) was 14.6 µM, the GI50 (SF-539 CNS) was 3.42 µM and the TGI (SF-539 CNS) was 7.83 µM. For the same molecule, the GI50 (HCT-15 colon) was 3.55 µM, the TGI (HCT-15 colon) was 17.5 µM and the GI50 (MALME-3M melanoma) was 4.06 µM. For the same molecule, the TGI (MALME-3M melanoma) was 9.41 µM, the GI50 (HL-60(TB) leukemia) was 3.5 µM and the TGI (HL-60(TB) leukemia) was 11 µM. For the same molecule, the GI50 (T-47D breast) was 206 nM, the TGI (T-47D breast) was 7.1 µM and the GI50 (NCI-H460 lung) was 5.17 µM. It also gave a TGI (NCI-H460 lung) of 14 µM, a GI50 (RXF 393 renal) of 413 nM and a TGI (RXF 393 renal) of 3.32 µM. The GI50 (SNB-19 CNS) was 4.46 µM and the TGI (SNB-19 CNS) was over 25 µM.
